PMC12195967, “Cobalt(II) Complexes of 4′–Nitro–Fenamic Acid: Characterization and Biological Evaluation” (Molecules, 2025)
Like-named read-outs stand apart in the source and are kept apart here.

Key:
[1] = system: Staphylococcus aureus ATCC 29213; test: Antibacterial activity, MIC; type: cell-based; conditions: 24 h incubation, 37°C; for MIC: read-out: MIC, S. aureus
Source text: In order to evaluate the antimicrobial activity of the synthesized 4′–NO2–fenH and its Co(II) complexes 1–4, two Gram-positive (B. subtilis and S. aureus) and two Gram-negative (X. campestris and E. coli) strains were used. In general, the increased antimicrobial activity of the complexes is attributed to five main factors: (i) the chelation effect of the ligands, (ii) the chemical nature of the ligands, (iii) the nature and the nuclearity of the metal center, (iv) the total charge of the complex and (v) the presence and nature of counter ions. […]
S2 Antibacterial Activity studies
The antibacterial activity of the compounds was evaluated by determining their respective MIC values towards two Gram–(–) (Escherichia coli XL1 (E. coli) and Xanthomonas campestris ATCC 1395 (X. campestris)) and two Gram–(+) (Staphylococcus aureus ATCC 29213 (S. aureus) and Bacillus subtilis ATCC 6633 (B. subtilis)) bacterial species. Cultures of these microbial strains were grown on a rich selective agar medium and stored at 4°C. The selective media used were Nutrient Agar or Broth for B. subtilis and S. aureus, Yeast Mold Agar or Broth for X. campestris and Luria Agar or Broth for E. coli. Cells picked from the surface of the stored cultures were used to initiate liquid pre–cultures of the same selective medium at an initial turbidity of roughly 1 McFarland unit.
Pre–cultures were incubated for 24 h in a rotary shaking incubator and subsequently they were used to inoculate the test cultures used for the determination of MIC at an initial turbidity of 0.5 McFarland units. The test cultures consisted of Mueller–Hinton broth (Deben Diagnostics Ltd) containing different concentrations of the compounds. Different concentrations were achieved as follows: the compounds were freshly dissolved in DMSO to a concentration of 1 mg/mL, and they were diluted with DMSO, using the method of progressive double dilution. Therefore, working solutions with decreasing concentrations of the compounds under investigation were achieved.
The working solutions were subsequently diluted to the final desired concentration by addition to the growth medium at a proportion of 2:98. MIC values were determined as the lowest concentrations of the tested compounds that inhibited visible growth of each respective organism after a 24 h incubation. Bacterial growth was determined by measuring the turbidity of appropriately diluted cultures at 600 nm with reference to equally diluted sterile growth medium and the inhibition achieved was calculated by comparing the turbidity of each culture to the average of the turbidity of three non–inhibited cultures. All test cultures were grown in triplicates and for the determination of MIC, growth had to be inhibited in at least two cultures of the triplicate. The incubation temperature at all stages was 37°C except for X. campestris that was cultivated at 28°C [4].

[2] = ABTS radical cation scavenging; conditions: compounds 0.1 mM; absorbance 734 nm after 1 min
Method: The ABTS-scavenging was measured through the discoloration of a dark green solution containing the cationic radical ABTS^•+, which was induced from the oxidation derived from hydrogen-donating antioxidants, either complexes or standards, and is often considered a marker of total oxidation capacity. […] Such an increase in activity upon coordination is expected for metal–NSAID complexes.
S1 Antioxidant activity assay
The antioxidant activity of the compound was evaluated via the ability to scavenge in vitro free radicals such as DPPH and ABTS and to reduce H2O2. All the experiments were carried out at least in triplicate and the standard deviation of absorbance was less than 10% […]
S1.2 Assay of radical cation ABTS−scavenging activity
The ABTS assay was performed to determine the activity of the compounds to scavenge the radical cation ABTS. Initially, a water solution of ABTS was prepared (2 mM).
ABTS radical cation (ABTS+·) was produced by the reaction of ABTS stock solution with potassium persulfate (0.17 mM) and the mixture was stored in the dark at room temperature for 12−16 h before its use. The ABTS was oxidized incompletely because the stoichiometric reaction ratio of ABTS and potassium persulfate is 1:0.5. The absorbance became maximal and stable only after more than 6 h of reaction although the oxidation of the ABTS started immediately. The radical was stable in this form for more than 2 days when allowed to stand in the dark at room temperature. Afterwards, the ABTS+· solution was diluted in ethanol to an absorbance of 0.70 at 734 nm and 10 μL of diluted compounds or standards (0.1 mM) in DMSO were added. The absorbance was recorded out exactly 1 min after initial mixing.
The ABTS–radical scavenging activity of the compounds was expressed as the percentage inhibition of the absorbance of the initial ABTS solution (ABTS%). […]

With `O=C(O)c1ccccc1Nc1ccc([N+](=O)[O-])cc1` [4′–NO2–fenH, 4′–nitrofenamic acid] as the compound, how does the MIC ([1]; Staphylococcus aureus, ATCC29213) read?
Its MIC is 25 µg/mL.

And the MIC ([1]; Staphylococcus aureus, ATCC29213, value in parentheses)?
The MIC was 97 µM.

What about the “%ABTS radical scavenging activity (ABTS%)” value [2] of the same compound?
The value was “Not active”.

Which “MIC, S. aureus” value [1] does the source give for `CO.CO.CO.CO.O=C([O-])c1ccccc1Nc1ccc([N+](=O)[O-])cc1.O=C([O-])c1ccccc1Nc1ccc([N+](=O)[O-])cc1.[Co+2]` [Complex 1, [Co(4′–NO2–fen)2(MeOH)4]] here?
The value was 12.5 µg/mL.

And the MIC ([1]; value in parentheses)?
Its MIC is 18 µM.

And the “%ABTS radical scavenging activity (ABTS%)” value [2]?
Its value is 24.68 ± 0.35%.

For `O=C([O-])c1ccccc1Nc1ccc([N+](=O)[O-])cc1.O=C([O-])c1ccccc1Nc1ccc([N+](=O)[O-])cc1.[Co+2].c1ccc(Nc2ccccn2)nc1` [Complex 2, [Co(4′–NO2–fen)2(bipyam)]], which “MIC, S. aureus” value [1] is on record?
Its value is > 50 µg/mL.

What about the MIC ([1]; value in parentheses) of the same compound?
The MIC was > 67 µM.

What about the “%ABTS radical scavenging activity (ABTS%)” value [2] of the same compound?
The value was 43.65 ± 0.37%.

For `O=C([O-])c1ccccc1Nc1ccc([N+](=O)[O-])cc1.O=C([O-])c1ccccc1Nc1ccc([N+](=O)[O-])cc1.[Co+2].c1cnc2c(c1)ccc1cccnc12` [Complex 3, [Co(4′–NO2–fen)2(phen)]], which “MIC, S. aureus” value [1] is on record?
The value was 25 µg/mL.

And the MIC ([1]; value in parentheses)?
The MIC was 33 µM.

What about the “%ABTS radical scavenging activity (ABTS%)” value [2] of the same compound?
Its value is 48.12 ± 0.88%.

Which “MIC, S. aureus” value [1] does the source give for `C[O-].C[O-].Cc1ccc2ccc3ccc(C)nc3c2n1.Cc1ccc2ccc3ccc(C)nc3c2n1.O=C([O-])c1ccccc1Nc1ccc([N+](=O)[O-])cc1.O=C([O-])c1ccccc1Nc1ccc([N+](=O)[O-])cc1.[Co+2].[Co+2]` [Complex 4, [Co2(4′–NO2–fen)2(μ–CH3O)2(neoc)2]] here?
The value was 12.5 µg/mL.

And the MIC ([1]; value in parentheses)?
Its MIC is 11 µM.

And the “%ABTS radical scavenging activity (ABTS%)” value [2]?
The value was 21.39 ± 0.22%.
